# In US9376425B2, “Heterocyclic compounds as MDM2 inhibitors for the treatment of cancer” (AMGEN INC., priority 2011, dated 2016):
# Molecular target: T1, human MDM2 (GST-hMDM2 1-188), interaction with biotinylated-p53 (1-83) (Homo sapiens, UniProt Q00987)
# T1 construct: Amino acid residues 1-188 of human MDM2 were expressed; made in house; host or cells: Escherichia coli
# Assay: improved HTRF assay (HTRF2 assay), inhibition of HDM2-p53 interaction
# Format: binding
# Settings: 0.2 nM GST-hMDM2, 0.5 nM biotinylated-p53, 100 mM KF
# Summary of the method: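 GST-hMDM2 preincubated 20 min at RT with serially diluted compound, then biotinylated p53 (1-83, E. coli) added for 60 min. Detection with SA-XLent, anti-GST cryptate and KF, equilibrated >4 h; final DMSO 2%. TR-FRET read; % inhibition calculated relative to nutlin-3.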
# T1 sequence (Q00987 1-188): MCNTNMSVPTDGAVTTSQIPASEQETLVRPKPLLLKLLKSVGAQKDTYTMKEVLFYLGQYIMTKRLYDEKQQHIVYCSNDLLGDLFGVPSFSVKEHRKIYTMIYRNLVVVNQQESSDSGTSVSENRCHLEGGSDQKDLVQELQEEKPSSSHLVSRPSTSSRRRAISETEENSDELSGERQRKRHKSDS
row,SMILES,IC50 [nM]
1,"CC(C)(C)S(=O)(=O)C[C@H](C1CC1)N1C(=O)[C@@](C)(CC(=O)O)O[C@H](c2cccc(Cl)c2)[C@H]1c1ccc(Cl)c(F)c1 (single isomer, unassigned) [Example 411, 2-((2R,5R,6R)-4-((S)-2-(tert-Butylsulfonyl)-1-cyclopropylethyl)-5-(4-chloro-3-fluorophenyl)-6-(3-chlorophenyl)-2-methyl-3-oxomorpholin-2-yl)acetic acid or 2-((2S,5R,6R)-4-((S)-2-(tert-butylsulfonyl)-1-cyclopropylethyl)-5-(4-chloro-3-fluorophenyl)-6-(3-chlorophenyl)-2-methyl-3-oxomorpholin-2-yl)acetic acid]",< 1
2,"CC(C)(C)S(=O)(=O)C[C@H](C1CC1)N1C(=O)[C@@](C)(CC(=O)O)O[C@H](c2cccc(Cl)c2)[C@H]1c1ccc(Cl)c(F)c1 (single isomer, unassigned) [Example 412, 2-((2R,5R,6R)-4-((S)-2-(tert-Butylsulfonyl)-1-cyclopropylethyl)-5-(4-chloro-3-fluorophenyl)-6-(3-chlorophenyl)-2-methyl-3-oxomorpholin-2-yl)acetic acid or 2-((2S,5R,6R)-4-((S)-2-(tert-butylsulfonyl)-1-cyclopropylethyl)-5-(4-chloro-3-fluorophenyl)-6-(3-chlorophenyl)-2-methyl-3-oxomorpholin-2-yl)acetic acid]",11
3,"CC[C@@H]([C@H](C)S(=O)(=O)C(C)C)N1C(=O)[C@@H](CC(=O)O)O[C@H](c2cccc(Cl)c2)[C@H]1c1ccc(Cl)cc1 (single isomer, unassigned) [Example 413]",< 1
4,"CC[C@@H]([C@H](C)S(=O)(=O)C(C)C)N1C(=O)[C@@H](CC(=O)O)O[C@H](c2cccc(Cl)c2)[C@H]1c1ccc(Cl)cc1 (single isomer, unassigned) [Example 414]",1
5,"CC[C@@H]([C@H](C)S(=O)(=O)C(C)C)N1C(=O)[C@@H](CC(=O)O)O[C@H](c2cccc(Cl)c2)[C@H]1c1ccc(Cl)cc1 (single isomer, unassigned) [Example 415]",1
6,"CC[C@@H]([C@H](C)S(=O)(=O)C(C)C)N1C(=O)[C@@H](CC(=O)O)O[C@H](c2cccc(Cl)c2)[C@H]1c1ccc(Cl)cc1 (single isomer, unassigned) [Example 416]",4
7,"CC[C@@H]([C@H](C)S(=O)(=O)C(C)(C)C)N1C(=O)[C@@H](CC(=O)O)O[C@H](c2cccc(Cl)c2)[C@H]1c1ccc(Cl)cc1 (single isomer, unassigned) [Example 419]",4
8,"CC[C@@H]([C@H](C)S(=O)(=O)C(C)(C)C)N1C(=O)[C@@H](CC(=O)O)O[C@H](c2cccc(Cl)c2)[C@H]1c1ccc(Cl)cc1 (single isomer, unassigned) [Example 420]",12
9,"CC(C)S(=O)(=O)[C@H]1CCC[C@@H]1N1C(=O)[C@@H](CC(=O)O)O[C@H](c2cccc(Cl)c2)[C@H]1c1ccc(Cl)cc1 (single isomer, unassigned) [Example 421]",13600
10,"CC(C)S(=O)(=O)[C@H]1CCC[C@@H]1N1C(=O)[C@@H](CC(=O)O)O[C@H](c2cccc(Cl)c2)[C@H]1c1ccc(Cl)cc1 (single isomer, unassigned) [Example 422]",3
11,"C[C@@H](CS(=O)(=O)C(C)(C)C)N1C(=O)[C@@H](CC(=O)O)O[C@H](c2cc(F)cc(Cl)c2)[C@H]1c1ccc(Cl)c(F)c1 (single isomer, unassigned) [Example 423, 2-((2R,5R,6R)-4-((S)-1-(tert-Butylsulfonyl)propan-2-yl)-5-(4-chloro-3-fluorophenyl)-6-(3-chloro-5-fluorophenyl)-3-oxomorpholin-2-yl)acetic acid or 2-((2S,5R,6R)-4-((S)-1-(tert-butylsulfonyl)propan-2-yl)-5-(4-chloro-3-fluorophenyl)-6-(3-chloro-5-fluorophenyl)-3-oxomorpholin-2-yl)acetic acid]",1
12,"C[C@@H](CS(=O)(=O)C(C)(C)C)N1C(=O)[C@@H](CC(=O)O)O[C@H](c2cc(F)cc(Cl)c2)[C@H]1c1ccc(Cl)c(F)c1 (single isomer, unassigned) [Example 424, 2-((2R,5R,6R)-4-((S)-1-(tert-Butylsulfonyl)propan-2-yl)-5-(4-chloro-3-fluorophenyl)-6-(3-chloro-5-fluorophenyl)-3-oxomorpholin-2-yl)acetic acid or 2-((2S,5R,6R)-4-((S)-1-(tert-butylsulfonyl)propan-2-yl)-5-(4-chloro-3-fluorophenyl)-6-(3-chloro-5-fluorophenyl)-3-oxomorpholin-2-yl)acetic acid]",3
13,"CC[C@@H](CS(=O)(=O)C(C)(C)C)N1C(=O)[C@@H](CC(=O)O)O[C@H](c2cc(F)cc(Cl)c2)[C@H]1c1ccc(Cl)c(F)c1 (single isomer, unassigned) [Example 425, 2-((2R,5R,6R)-4-((S)-1-(tert-Butylsulfonyl)butan-2-yl)-5-(4-chloro-3-fluorophenyl)-6-(3-chloro-5-fluorophenyl)-3-oxomorpholin-2-yl)acetic acid or 2-((2S,5R,6R)-4-((S)-1-(tert-butylsulfonyl)butan-2-yl)-5-(4-chloro-3-fluorophenyl)-6-(3-chloro-5-fluorophenyl)-3-oxomorpholin-2-yl)acetic acid]",< 1
14,"CC[C@@H](CS(=O)(=O)C(C)(C)C)N1C(=O)[C@@H](CC(=O)O)O[C@H](c2cc(F)cc(Cl)c2)[C@H]1c1ccc(Cl)c(F)c1 (single isomer, unassigned) [Example 426, 2-((2R,5R,6R)-4-((S)-1-(tert-Butylsulfonyl)butan-2-yl)-5-(4-chloro-3-fluorophenyl)-6-(3-chloro-5-fluorophenyl)-3-oxomorpholin-2-yl)acetic acid or 2-((2S,5R,6R)-4-((S)-1-(tert-butylsulfonyl)butan-2-yl)-5-(4-chloro-3-fluorophenyl)-6-(3-chloro-5-fluorophenyl)-3-oxomorpholin-2-yl)acetic acid]",1
15,"CC[C@@H](CS(=O)(=O)C(C)(C)C)N1C(=O)[C@@H](CC(=O)OC)O[C@H](c2cccc(Cl)c2)[C@H]1c1ccc(Cl)cc1 [Example 149, Methyl 2-((2R,5R,6R)-4-((S)-1-(tert-butylsulfonyl)butan-2-yl)-6-(3-chlorophenyl)-5-(4-chlorophenyl)-3-oxomorpholin-2-yl)acetate]",30
16,"CC[C@@H](CS(=O)(=O)C(C)(C)C)N1C(=O)[C@H](CC(=O)OC)O[C@H](c2cccc(Cl)c2)[C@H]1c1ccc(Cl)cc1 [Example 150, Methyl 2-((2S,5R,6R)-4-((S)-1-(tert-butylsulfonyl)butan-2-yl)-6-(3-chlorophenyl)-5-(4-chlorophenyl)-3-oxomorpholin-2-yl)acetate]",21
17,"CC[C@@H](CS(=O)(=O)C(C)(C)C)N1C(=O)[C@H](CCO)O[C@H](c2cccc(Cl)c2)[C@H]1c1ccc(Cl)cc1 [Example 151, (2S,5R,6R)-4-((S)-1-(tert-butylsulfonyl)butan-2-yl)-6-(3-chlorophenyl)-5-(4-chlorophenyl)-2-(2-hydroxyethyl)morpholin-3-one]",22
18,"CC[C@@H](CS(=O)(=O)C(C)(C)C)N1C(=O)[C@@H](CCO)O[C@H](c2cccc(Cl)c2)[C@H]1c1ccc(Cl)cc1 [Example 152, (2R,5R,6R)-4-((S)-1-(tert-butylsulfonyl)butan-2-yl)-6-(3-chlorophenyl)-5-(4-chlorophenyl)-2-(2-hydroxyethyl)morpholin-3-one]",37
